# Test results published in US20250281462A1, “THERAPEUTICALLY EFFECTIVE ORAL ADMINISTRATION OF A 2 ARYLBENZIMIDAZOLE” (Tranquis Therapeutics, Inc., priority 2021, published 2025).
# Entries after “also recorded” stand apart in the source; their conditions may differ.
# Columns and labels:
# TNF-α = assay: LPS-induced TNF-α production by primary human myeloid cells (PBMC, CBA); format: cell-based; settings: 100 ng/mL LPS, 24 hours
# Experimental: Peripheral blood mononuclear cells (PBMC) from 4 different healthy volunteers were used in this study. Fresh blood samples were collected at Stanford Blood Center and processed for PBMC isolation with Ficoll gradient. PBMC samples were stored in liquid nitrogen at […] for subsequent analysis of TNF-α production. For TNF-α stimulation, frozen PBMC samples were thawed and rested at 37° C. before cells were stimulated with 100 ng/ml of LPS for 24 hours. DMSO (1:1000 final dilution) or TQS-168 in DMSO (1:1000 final dilution) at various concentrations was added to cell cultures of LPS-stimulated PBMC to evaluate the effects of T-168 on TNF-α production by human primary myeloid cells. After 24 hours stimulation, supernatant samples from various conditions were collected and TNF-α concentrations in the supernatants analyzed with cytometric bead array (CBA) assay per protocols from BD Biosciences. TNF-α was quantified by median fluorescent intensity reading (MFI). Samples were analyzed directly after staining with LSRII flow cytometer.
# IL-6 = assay: LPS-stimulated IL-6 secretion from human PBMCs (ELISA); format: cell-based; settings: LPS 1 ng/mL, 24 h
# Experimental: The principal metabolites from liver metabolism of TQS-168 following oral administration have been described. See Sun et al., Rapid Commun. Mass Spectrom. 32:480-488 (2018), incorporated herein by reference. We synthesized the phase 1 metabolites from liver metabolism of TQS-168 illustrated in FIG. 20 and tested them for the ability to inhibit LPS-stimulated secretion of pro-inflammatory cytokines in vitro.
# Briefly, 20,000 human PBMC were aliquoted into each well. LPS was added at 1 ng/mL and the cells incubated for 24 h in the presence of LPS and TQS-168 or one of its metabolites. Readouts were human IL-6 ELISA and human TNFα ELISA. For assay, supernatants were diluted in culture medium. The supernatant dilution for the IL-6 ELISA was 1:8, and the 1:2 for the human TNFα ELISA.
Compound,suppression of TNFα production vs no treatment (TNF-α; 5 μM),suppression of TNFα production vs no treatment (TNF-α; 20 μM),inhibition of LPS-stimulated IL-6 secretion (IL-6)
"CC(C)(C)c1ccc(-c2nc3ccccc3[nH]2)cc1 [TQS-168, 2-(4-tert-butylphenyl)-1H-benzimidazole]",statistically significant suppression,statistically significant suppression,–
CC(C)(C)c1ccc(-c2nc3cc(O)ccc3[nH]2)cc1 [TQS-621],–,–,potently inhibits; also recorded: potent inhibitor
